Source: US20240174680A1, “CDK2 INHIBITORS AND METHODS OF USING THE SAME” (Cedilla Therapeutics, Inc., priority 2021, published 2024)

Target: CDK2/Cyclin E1 (Homo sapiens, UniProt P24941)
Assay: CDK2/Cyclin E1 Caliper LabChip EZ Reader mobility shift assay
Format: biochemical
Parameters: purchased Eurofins 14-475
Conditions: read-out: Caliper Assay (CDK2/CCNE1): IC50
Procedure, shortened: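 Substrate-to-product conversion of fluorescent peptide (1.5 μM final) read by capillary electrophoresis after 100 min reaction, EDTA-quenched. Enzyme (2.5 nM final) and ATP (100 μM final) were preincubated 30 min with inhibitor dilutions first. % activity vs concentration fitted four-parameter for IC50.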

Row | SMILES | IC50
1 | CNC(=O)[C@@H](NC(=O)[C@H]1CN(C(=O)c2cnc(C3CC3)s2)CC12CN(C(=O)[C@H]1CC1(C)C)C2)[C@@H](C)OCC1CCCCC1 [I-178B] | > 10000 nM
2 | CN(C(=O)[C@H]1CCCN(C(=O)[C@@H]2CN(C(=O)c3cnn(Cc4ccccc4)c3)CC23CN(C(=O)[C@H]2CC2(C)C)C3)C1)C1CCCCC1 [I-179] | 1000 to 10000 nM
3 | CC1(C)C[C@@H]1C(=O)N1CC2(CN(C(=O)c3cnn(Cc4ccccc4)c3)C[C@H]2C(=O)N2CCC[C@H](C(=O)NC3CCCCC3)C2)C1 [I-180] | 100 to 1000 nM
4 | CN(C(=O)[C@@H]1CCCN(C(=O)[C@@H]2CN(C(=O)c3cnn(Cc4ccccc4)c3)CC23CN(C(=O)[C@H]2CC2(C)C)C3)C1)C1CCCCC1 [I-181] | 1000 to 10000 nM
5 | CC1(C)C[C@@H]1C(=O)N1CC2(CN(C(=O)c3cnn(Cc4ccccc4)c3)C[C@H]2C(=O)N[C@H]2CCCN(C(=O)C3CCCCC3)C2)C1 [I-182] | 1000 to 10000 nM
6 | CC1(C)C[C@@H]1C(=O)N1CC2(CN(C(=O)c3cnn(Cc4ccccc4)c3)C[C@H]2C(=O)N[C@H]2CCCN(CC3CCCCC3)C2)C1 [I-183] | > 10000 nM
7 | CNC(=O)[C@@H](NC(=O)[C@@H]1CN(C(=O)c2c[nH]c(=O)s2)CC12CN(C(=O)[C@H]1CC1(C)C)C2)[C@@H](C)OCC1CCCCC1 [I-184] | 100 to 1000 nM
8 | CNC(=O)[C@@H](NC(=O)[C@@H]1CN(C(=O)c2scnc2C2CC2)CC12CN(C(=O)[C@H]1CC1(C)C)C2)[C@@H](C)OCC1CCCCC1 [I-185A] | > 10000 nM
9 | CNC(=O)[C@@H](NC(=O)[C@H]1CN(C(=O)c2scnc2C2CC2)CC12CN(C(=O)[C@H]1CC1(C)C)C2)[C@@H](C)OCC1CCCCC1 [I-185B] | > 10000 nM
10 | CNC(=O)[C@@H](NC(=O)[C@@H]1CN(C(=O)c2cncs2)CC12CN(C(=O)C(C)(C)C)C2)[C@@H](C)OCC1CCCCC1 [I-186A] | 10 to 100 nM
11 | CNC(=O)[C@@H](NC(=O)[C@H]1CN(C(=O)c2cncs2)CC12CN(C(=O)C(C)(C)C)C2)[C@@H](C)OCC1CCCCC1 [I-186B] | > 10000 nM
12 | COC(=O)[C@@H](CO)NC(=O)[C@@H]1CN(C(=O)c2cnn(Cc3ccccc3)c2)CC12CN(C(=O)[C@H]1CC1(C)C)C2 [I-187A] | > 10000 nM
13 | COC(=O)[C@@H](CO)NC(=O)[C@H]1CN(C(=O)c2cnn(Cc3ccccc3)c2)CC12CN(C(=O)[C@H]1CC1(C)C)C2 [I-187B] | > 10000 nM
14 | C[C@@H](OCC1CCC(F)(F)CC1)[C@H](NC(=O)[C@@H]1CN(C(=O)c2cn[nH]c2)CC12CN(C(=O)C1(C(F)(F)F)CC1)C2)C(=O)N1CCC(F)(F)CC1 [I-188A] | 10 to 100 nM
15 | C[C@@H](OCC1CCC(F)(F)CC1)[C@H](NC(=O)[C@H]1CN(C(=O)c2cn[nH]c2)CC12CN(C(=O)C1(C(F)(F)F)CC1)C2)C(=O)N1CCC(F)(F)CC1 [I-188B] | 1000 to 10000 nM
16 | CNC(=O)[C@@H](NC(=O)[C@@H]1CN(C(=O)c2cnc(Cl)s2)CC12CN(C(=O)[C@H]1CC1(C)C)C2)[C@@H](C)OCC1CCCCC1 [I-189A] | 100 to 1000 nM
17 | CNC(=O)[C@@H](NC(=O)[C@H]1CN(C(=O)c2cnc(Cl)s2)CC12CN(C(=O)[C@H]1CC1(C)C)C2)[C@@H](C)OCC1CCCCC1 [I-189B] | > 10000 nM
18 | CC1(C)C[C@@H]1C(=O)N1CC2(CN(C(=O)c3cnn(Cc4ccccc4)c3)C[C@H]2C(=O)NCc2nnc[nH]2)C1 [I-191A] | > 10000 nM
19 | CC1(C)C[C@@H]1C(=O)N1CC2(CN(C(=O)c3cnn(Cc4ccccc4)c3)C[C@@H]2C(=O)NCc2nnc[nH]2)C1 [I-191B] | > 10000 nM
20 | C[C@@H](OCC1CCCCC1)[C@H](NC(=O)C1CN(C(=O)c2cnn(Cc3ccccc3)c2)CC12CN(C(=O)[C@H]1CC1(C)C)C2)C(=O)N1CCCCC1 (some centres unmarked) [I-194 mixture] | ≤ 10 nM
21 | COC[C@@H]1CCCN(C(=O)[C@@H](NC(=O)C2CN(C(=O)c3cncs3)CC23CN(C(=O)[C@H]2CC2(C)C)C3)[C@@H](C)OCC2CCCCC2)C1 (some centres unmarked) [I-195] | ≤ 10 nM
22 | COC[C@H]1CCCN(C(=O)[C@@H](NC(=O)C2CN(C(=O)c3cncs3)CC23CN(C(=O)[C@H]2CC2(C)C)C3)[C@@H](C)OCC2CCCCC2)C1 (some centres unmarked) [I-196 mixture] | ≤ 10 nM
23 | COC[C@H]1CCCN(C(=O)[C@@H](NC(=O)[C@H]2CN(C(=O)c3cncs3)CC23CN(C(=O)[C@H]2CC2(C)C)C3)[C@@H](C)OCC2CCCCC2)C1 [I-196B] | ≤ 10 nM
24 | C[C@@H](OCC1CCCCC1)[C@H](NC(=O)C1CN(C(=O)c2cncs2)CC12CN(C(=O)[C@H]1CC1(C)C)C2)C(=O)N1CCC[C@@H](CO)C1 (some centres unmarked) [I-197] | ≤ 10 nM
25 | C[C@@H](OCC1CCCCC1)[C@H](NC(=O)[C@@H]1CN(C(=O)c2cncs2)CC12CN(C(=O)[C@H]1CC1(C)C)C2)C(=O)N1CCOCC1 [I-198] | ≤ 10 nM
26 | CNC(=O)[C@@H](NC(=O)[C@@H]1CN(C(=O)c2cnn(Cc3ccccc3)c2)CC12CN(C(=O)[C@H]1CC1(C)C)C2)C(C)(C)S(=O)(=O)Cc1ccccc1 [I-199, (S)-6-(1-benzyl-1H-pyrazole-4-carbonyl)-N—((R)-3-(benzylsulfonyl)-3-methyl-1-(methylamino)-1-oxobutan-2-yl)-2-((S)-2,2-dimethylcyclopropane-1-carbonyl)-2,6-diazaspiro[3.4]octane-8-carboxamide] | 100 to 1000 nM
27 | C[C@@H](OCC1CCCCC1)[C@H](NC(=O)[C@@H]1CN(C(=O)c2cnn(Cc3ccccc3)c2)CC12CN(C(=O)[C@H]1CC1(C)C)C2)C(N)=O [I-200] | ≤ 10 nM

Row | SMILES | IC50
28 | CC1(C)C[C@@H]1C(=O)N1CC2(CN(C(=O)c3cnn(Cc4ccccc4)c3)C[C@@H]2C(=O)N[C@@H]2CC[C@@H]2O)C1 [I-201A] | > 10000 nM
29 | CC1(C)C[C@@H]1C(=O)N1CC2(CN(C(=O)c3cnn(Cc4ccccc4)c3)C[C@H]2C(=O)N[C@@H]2CC[C@@H]2O)C1 [I-201B] | > 10000 nM
30 | CNC(=O)[C@@H](NC(=O)[C@@H]1CN(C(=O)c2cnn(Cc3ccccc3)c2)CC12CN(C(=O)[C@H]1CC1(C)C)C2)[C@@H](C)OCC1CCC(F)(F)CC1 [I-202] | ≤ 10 nM
31 | C[C@@H](OCC1CCC(F)(F)CC1)[C@H](NC(=O)[C@@H]1CN(C(=O)c2cnn(Cc3ccc(F)cc3)c2)CC12CN(C(=O)[C@H]1CC1(C)C)C2)C(N)=O [I-203] | ≤ 10 nM
32 | CNC(=O)[C@@H](NC(=O)[C@@H]1CN(C(=O)c2cnn(Cc3ccccc3)c2)CC12CN(C(=O)[C@H]1CC1(C)C)C2)[C@@H](C)OCC(F)(F)F [I-204] | 1000 to 10000 nM
33 | CNC(=O)[C@@H](NC(=O)[C@@H]1CN(C(=O)c2cnn(Cc3ccccc3)c2)CC12CN(C(=O)[C@H]1CC1(C)C)C2)[C@@H](C)OCC1(C(F)(F)F)CC1 [I-205A] | 100 to 1000 nM
34 | CNC(=O)[C@@H](NC(=O)[C@H]1CN(C(=O)c2cnn(Cc3ccccc3)c2)CC12CN(C(=O)[C@H]1CC1(C)C)C2)[C@@H](C)OCC1(C(F)(F)F)CC1 [I-205B] | 1000 to 10000 nM
35 | CC1(C)C[C@@H]1C(=O)N1CC2(CN(C(=O)c3cnn(Cc4ccccc4)c3)C[C@H]2C(=O)N[C@H]2CCN(c3ccccc3)C2)C1 [I-206] | 100 to 1000 nM
36 | CC1(C)C[C@@H]1C(=O)N1CC2(CN(C(=O)c3cnn(Cc4ccccc4)c3)C[C@H]2C(=O)N[C@@H]2CCN(c3ccccc3)C2)C1 [I-207] | 1000 to 10000 nM
37 | CNC(=O)[C@@H](NC(=O)[C@@H]1CN(C(=O)c2sc(Cl)nc2C)CC12CN(C(=O)[C@H]1CC1(C)C)C2)[C@@H](C)OCC1CCCCC1 [I-208A] | 10 to 100 nM
38 | CNC(=O)[C@@H](NC(=O)[C@H]1CN(C(=O)c2sc(Cl)nc2C)CC12CN(C(=O)[C@H]1CC1(C)C)C2)[C@@H](C)OCC1CCCCC1 [I-208B] | 100 to 1000 nM
39 | COC(=O)[C@H](CO)NC(=O)[C@@H]1CN(C(=O)c2cnn(Cc3ccccc3)c2)CC12CN(C(=O)[C@H]1CC1(C)C)C2 [I-209A] | 1000 to 10000 nM
40 | COC(=O)[C@H](CO)NC(=O)[C@H]1CN(C(=O)c2cnn(Cc3ccccc3)c2)CC12CN(C(=O)[C@H]1CC1(C)C)C2 [I-209B] | > 10000 nM
41 | CC1(C)C[C@@H]1C(=O)N1CC2(CN(C(=O)c3cnn(Cc4ccccc4)c3)C[C@H]2C(=O)N2CCO[C@@H](Cc3ccccc3)C2)C1 [I-210] | > 10000 nM
42 | CC1(C)C[C@@H]1C(=O)N1CC2(CN(C(=O)c3cnn(Cc4ccccc4)c3)C[C@H]2C(=O)N[C@@H]2CCCN(CC3CCCCC3)C2)C1 [I-212] | 1000 to 10000 nM
43 | CNC(=O)[C@@H](NC(=O)[C@@H]1CN(C(=O)c2sc(C)nc2C)CC12CN(C(=O)[C@H]1CC1(C)C)C2)[C@@H](C)OCC1CCCCC1 [I-213A] | 10 to 100 nM
44 | CNC(=O)[C@@H](NC(=O)[C@H]1CN(C(=O)c2sc(C)nc2C)CC12CN(C(=O)[C@H]1CC1(C)C)C2)[C@@H](C)OCC1CCCCC1 [I-213B] | > 10000 nM
45 | CC1(C)C[C@@H]1C(=O)N1CC2(CN(C(=O)c3cnn(Cc4ccccc4)c3)C[C@H]2C(=O)N2CCC(OCc3ccccc3)CC2)C1 [I-214] | 1000 to 10000 nM
46 | CC1(C)C[C@@H]1C(=O)N1CC2(CN(C(=O)c3cnn(Cc4ccccc4)c3)C[C@H]2C(=O)N[C@@H]2CCCN(C(=O)C3CCCCC3)C2)C1 [I-215] | 1000 to 10000 nM
47 | C[C@@H](OCC1CCCCC1)[C@H](NC(=O)[C@@H]1CN(C(=O)c2ccn[nH]2)CC12CN(C(=O)[C@H]1CC1(C)C)C2)C(=O)N1CCCCC1 [I-216] | 100 to 1000 nM
48 | C[C@@H](OCC1CCCCC1)[C@H](NC(=O)[C@@H]1CN(C(=O)c2ccns2)CC12CN(C(=O)[C@H]1CC1(C)C)C2)C(=O)N1CCCCC1 [I-217] | ≤ 10 nM
49 | C[C@@H](OCC1CCCCC1)[C@H](NC(=O)[C@@H]1CN(C(=O)c2cnn(Cc3ccccc3)c2)CC12CN(C(=O)[C@H]1CC1(C)C)C2)C(=O)N1CCC[C@@H](N)C1 [I-218] | ≤ 10 nM
50 | C[C@@H](OCC1CCCCC1)[C@H](NC(=O)[C@@H]1CN(C(=O)c2cnn(Cc3ccccc3)c2)CC12CN(C(=O)[C@H]1CC1(C)C)C2)C(=O)N1CCC(CN)CC1 [I-219] | ≤ 10 nM
51 | C[C@@H](OCC1CCCCC1)[C@H](NC(=O)[C@@H]1CN(C(=O)c2cnn(Cc3ccccc3)c2)CC12CN(C(=O)[C@H]1CC1(C)C)C2)C(=O)N1CCC[C@H]1CN [I-220] | 10 to 100 nM
52 | CC1(C)C[C@@H]1C(=O)N1CC2(CN(C(=O)c3cnn(Cc4ccccc4)c3)C[C@H]2C(=O)NCC2CCCCO2)C1 (some centres unmarked) [I-221] | > 10000 nM
53 | CC1(C)C[C@@H]1C(=O)N1CC2(CN(C(=O)c3cnn(Cc4ccccc4)c3)C[C@H]2C(=O)NC2CCNC(=O)C2)C1 (some centres unmarked) [I-223] | > 10000 nM
